4 compounds from BindingDB's records for doi:10.1016/j.bmcl.2005.04.021 (Novartis Institutes For Biomedical Research, 2005) can be followed below.

The experiment addresses T1, Adenosine receptor A2b (Homo sapiens, UniProt P29275).
T1 sequence (P29275 whole entry): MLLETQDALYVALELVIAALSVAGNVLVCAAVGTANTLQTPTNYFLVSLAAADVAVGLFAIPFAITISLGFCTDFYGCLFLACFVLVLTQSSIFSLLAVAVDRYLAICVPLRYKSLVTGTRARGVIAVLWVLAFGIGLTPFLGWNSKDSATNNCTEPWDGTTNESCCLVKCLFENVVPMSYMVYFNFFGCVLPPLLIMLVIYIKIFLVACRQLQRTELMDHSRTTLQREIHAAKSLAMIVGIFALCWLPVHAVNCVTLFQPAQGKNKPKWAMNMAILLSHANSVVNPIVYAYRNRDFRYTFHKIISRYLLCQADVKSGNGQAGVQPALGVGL
In words: Inhibition of luciferase production elicited by NECA by compound in CHO cells transfected with human adenosine A2b receptor and a luciferase expressing reporter plasmid in a reporter gene assay.
`N#Cc1cccc(-c2nc(Nc3cccnc3)sc2-n2ccnc2)c1` [3-[5-Imidazol-1-yl-2-(pyridin-3-ylamino)-thiazol-4-yl]-benzonitrile] came in with a KB of 92 nM.

For `N#Cc1cccc(-c2nc(Nc3ccccn3)sc2-n2cncn2)c1` [3-[2-(Pyridin-2-ylamino)-5-[1,2,4]triazol-1-yl-thiazol-4-yl]-benzonitrile], the KB was found to be 53 nM.

On to `N#Cc1cccc(-c2nc(Nc3ccncc3)sc2-n2cncn2)c1` [3-[2-(Pyridin-4-ylamino)-5-[1,2,4]triazol-1-yl-thiazol-4-yl]-benzonitrile], for which the KB worked out at 62 nM.

On to `N#Cc1cccc(-c2nc(Nc3cccnc3)sc2-n2cncn2)c1` [3-[2-(Pyridin-3-ylamino)-5-[1,2,4]triazol-1-yl-thiazol-4-yl]-benzonitrile], for which the KB is 86 nM.
